{"source": "patent US20190298621A1", "about": "“METHODS OF TREATMENT OF THE DENTAL PULP AND FILLING ROOT CANALS USING ANTI INFLAMMATORY RINSE SOLUTION AND FILLING COMPOSITION” (DENTSPLY SIRONA Inc., priority 2018, published 2019)", "test": "Anti-inflammatory agent solubility in solvents", "format": "physicochemical", "settings": "for Solvent (anti-inflammatory agent solubility in solvents): solvent in which the agent is miscible, ambient conditions", "procedure": "An anti-inflammatory rinse solution was prepared by mixing anti-inflammatory agent in a solvent in which they are miscible in a vial under ambient conditions as shown in Table 2."}
{"smiles": "C=CCc1ccc(O)c(OC)c1", "note": "[Eugenol]", "values": [{"measurement": "Solvent (anti-inflammatory agent solubility in solvents)", "value": "Ethanol"}, {"measurement": "solubility in water", "value": "partially soluble in water"}]}
{"smiles": "OC[C@@H](O)[C@H](O)[C@@H](O)CO", "note": "[Xylitol]", "values": [{"measurement": "Solvent (anti-inflammatory agent solubility in solvents)", "value": "Water"}]}
{"smiles": "O=C(/C=C/c1ccccc1)c1ccccc1", "note": "[Chalcone]", "values": [{"measurement": "Solvent (anti-inflammatory agent solubility in solvents)", "value": "Ethanol"}]}
{"smiles": "CC(C)Cc1ccc(C(C)C(=O)O)cc1", "note": "(stereo not shown) [Ibuprofen]", "values": [{"measurement": "solubility in water", "value": "partially soluble in water"}]}
{"smiles": "Cc1c(C)c2c(c(C)c1O)CC[C@@](C)(CCC[C@H](C)CCC[C@H](C)CCCC(C)C)O2", "note": "[Vitamin E, α-tocopherol]", "values": [{"measurement": "Solvent (anti-inflammatory agent solubility in solvents)", "value": "Ethanol"}, {"measurement": "solubility in water", "value": "insoluble in water"}]}
